Experimental data reported in patent publication US8404691B2, “Imidazothiazole derivatives having proline ring structure” (Daiichi Sankyo Company, Limited, priority 2009, dated 2013).

Experiments:
Mdm2/p53 binding = molecular target: T1, Mdm2/p53 binding (Homo sapiens, UniProt Q00987, L33E); assay: Mdm2/p53 binding assay (HTRF, His-p53 and GST-Mdm2); details: His-p53 (aa 1-132) and GST-Mdm2 (aa 25-108, L33E), 6.25 nM each, 25° C. for 1 hour
T1 construct: Mdm2 amino acids at positions 25 to 108
Description: Next, a test compound was diluted with DMSO to produce protein buffer solution containing 10% dilution, and this buffer solution was added in an amount of 4 μL/well to the plate.
These dilutions were added in an amount of 8 μL/well (total reaction solution volume: 20 μl/well). Then, the plate was left at 25° C. for 1 hour.
The R value calculated from the well supplemented with His-p53, GST-Mdm2, the test compound, and each antibody was defined as R (sample). The R value calculated from the well supplemented with His-p53, GST-Mdm2, and each antibody but without the test compound was defined as R (control). The R value calculated from the well supplemented with GST-Mdm2, the test compound, and each antibody but without His-p53 was defined as R (background). T/C was calculated from the formula shown below. An IC50 value for Mdm2/p53 binding was calculated by sigmoid fitting. T/C=(R(sample)−R(background))/(R(control)−R(background))

[1] = test system: human lung cancer-derived cell line NCI-H460 having wild-type p53; assay: Cell growth inhibition assay (MTT); format: cell-based; details: 72 h, NCI-H460 cells, culturing 3 days, read-out: anti-cellular effect GI50 (50% growth inhibition concentration)
Description: A cell growth inhibition assay was conducted using human lung cancer-derived cell line NCI-H460 having wild-type p53.
NCI-H460 cells were suspended in a medium (RPMI1640 medium containing 10% fetal bovine serum) and the suspension was inoculated in an amount of 500 cells/150 μL/well to a 96-well multiwell plate. A test compound was dissolved in DMSO and this solution was diluted with medium to prepare a sample solution (DMSO concentration: 1% or lower). On the next day of inoculation, medium nonsupplemented with the test compound or the sample solution was added in an amount of 50 μL/well. The MTT assay was conducted immediately after the medium was added in an amount of 50 μL on the next day of cell inoculation, and after the sample solution or the medium was added to cells followed by culturing at 37° C. for 3 days in a 5% CO2 atmosphere. The MTT assay was conducted as shown below.
A 5 mg/mL MTT (3-(4,5-dimethylthiazol-2-yl)-2,5-diphenyltetrazolium bromide, Sigma-Aldrich Co., M-2128) solution was prepared using a phosphate buffer solution (Dulbecco's Phosphate-buffered Saline). This MTT solution was added in an amount of 20 μL/well. Then, the plate was cultured at 37° C. for 4 hours in a 5% CO2 atmosphere. The plate was centrifuged at 1200 rpm for 5 minutes and then the culture supernatant was removed by aspiration using a dispenser. DMSO was added in an amount of 150 μL/well to dissolve generated formazan. The plate was stirred using a plate mixer for uniform color development from each well. The absorbance of each well was measured under conditions of OD 540 nm and reference 660 nm using a plate reader (SpectraMax PLUS384, Molecular Devices, CA, USA).
The OD value measured on the day of adding the sample solution was defined as S. The OD value measured three days after addition of the sample solution was defined as T. The OD value measured three days after addition of the DMSO dilution was defined as C. T/C (%) was determined at each concentration according to the calculation formula shown below to prepare a dose response curve, from which 50% growth inhibition concentration (GI50 value) was calculated. T/C(%)=(T−S)/(C−S)×100

[2] = Metabolic stability test (microsomal metabolism); format: in vitro ADME; details: human liver microsomes, 37° C., 30 minutes after addition of NADP+; further: tested at 1.1 µM
Description: 100 μL of 100 mM phosphate buffer solution (pH 7.4) containing 3 μM test compound was added to 100 μL of reaction solution containing 100 mM phosphate buffer solution (pH 7.4), 30 mM glucose 6-phosphate, 10 mM MgCl2.6H2O, 3 units/mL glucose 6-phosphate 1-dehydrogenase, and 0.3 to 1.5 mgP/mL human liver microsomes and the mixture was incubated at 37° C. for 20 minutes. Then, 70 μL of 100 mM phosphate buffer solution (pH 7.4) containing 3 mM NADP+ was added and the mixture was further incubated at 37° C. for 30 minutes to conduct a microsomal metabolism test. The compound was quantified by the internal standard method using a quadrupole mass spectrometer connected to a high performance liquid chromatography apparatus. The metabolic stability (residual percentage of compound: MS %) was determined according to the following formula: MS(human)(%)=(peak area ratio of test compound after addition of NADP+ and incubation for 30 minutes)/(peak area ratio of test compound before addition of NADP+)×100.
(peak area ratio: peak area of test compound divided by that of internal standard substance)

T1 sequence (Q00987 25-108 L33E): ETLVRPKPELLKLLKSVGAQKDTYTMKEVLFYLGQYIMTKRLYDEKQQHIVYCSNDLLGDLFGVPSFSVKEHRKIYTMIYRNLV

Row | Structure (SMILES) | IC50 (Mdm2/p53 binding) [nM] | GI50 [1] [nM] | MS (human) % (metabolic stability, residual percentage of compound) [2] [%]
1 | CC(C)C1=C(C(=O)N2C[C@H](F)C[C@H]2C(=O)N2CC3(CC3)NC[C@H]2CO)SC2=N[C@@](C)(c3ccc(Cl)nc3)[C@@H](c3ccc(Cl)c(F)c3)N21 [Example 12, {(6S)-7-[(4R)-1-{[(5R,6S)-5-(4-chloro-3-fluorophenyl)-6-(6-chloropyridin-3-yl)-3-isopropyl-6-methyl-5,6-dihydroimidazo[2,1-b][1,3]thiazol-2-yl]carbonyl}-4-fluoro-L-prolyl]-4,7-diazaspiro[2.5]oct-6-yl}methanol] | 5 | 400 to 2500 | 69
2 | CC(C)C1=C(C(=O)N2C[C@H](F)C[C@H]2C(=O)N2CC3(CC3)NC[C@@H]2C(=O)O)SC2=N[C@@](C)(c3ccc(Cl)nc3)[C@@H](c3ccc(Cl)c(F)c3)N21.Cl.Cl [Example 13, (6R)-7-[(4R)-1-{[(5R,6S)-5-(4-chloro-3-fluorophenyl)-6-(6-chloropyridin-3-yl)-3-isopropyl-6-methyl-5,6-dihydroimidazo[2,1-b][1,3]thiazol-2-yl]carbonyl}-4-fluoro-L-prolyl]-4,7-diazaspiro[2.5]octane-6-carboxylic acid dihydrochloride] | 5.4 | 400 to 2500 | 100
3 | CC(C)C1=C(C(=O)N2C[C@H](F)C[C@H]2C(=O)N2CC3(CC3)NC[C@H]2C(=O)O)SC2=N[C@@](C)(c3ccc(Cl)nc3)[C@@H](c3ccc(Cl)c(F)c3)N21 [Example 14] | 16 | 400 to 2500 | 100
4 | CC(C)C1=C(C(=O)N2C[C@H](F)C[C@H]2C(=O)N2CCN(C)C3(CC3)C2)SC2=N[C@@](C)(c3ccc(Cl)nc3)[C@@H](c3ccc(Cl)c(F)c3)N21 [Example 15, 7-[(4R)-1-{[(5R,6S)-5-(4-chloro-3-fluorophenyl)-6-(6-chloropyridin-3-yl)-3-isopropyl-6-methyl-5,6-dihydroimidazo[2,1-b][1,3]thiazol-2-yl]carbonyl}-4-fluoro-L-prolyl]-4-methyl-4,7-diazaspiro[2.5]octane] | 2.7 | < 400 | 44
5 | CC(C)C1=C(C(=O)N2C[C@H](F)C[C@H]2C(=O)N2CC3(CC3)N(C)C[C@H]2C)SC2=N[C@@](C)(c3ccc(Cl)nc3)[C@@H](c3ccc(Cl)c(F)c3)N21 [Example 17] | 3.3 | 400 to 2500 | 44
6 | CC(C)C1=C(C(=O)N2C[C@H](F)C[C@H]2C(=O)N2CCNC3(CC3)C2)SC2=N[C@@](C)(c3ccc(Cl)nc3)[C@@H](c3ccc(Cl)cc3)N21 [Example 26] | 2.7 | 400 to 2500 | 57
7 | CC(C)C1=C(C(=O)N2C[C@H](F)C[C@H]2C(=O)N2CC3(CC3)NC[C@H]2C)SC2=N[C@@](C)(c3ccc(Cl)nc3)[C@@H](c3ccc(Cl)cc3)N21 [Example 28] | 3.1 | 400 to 2500 | 51
8 | CC[C@H]1CNC2(CC2)CN1C(=O)[C@@H]1C[C@@H](F)CN1C(=O)C1=C(C(C)C)N2C(=N[C@@](C)(c3ccc(Cl)nc3)[C@H]2c2ccc(Cl)cc2)S1 [Example 29] | 2.6 | < 400 | 96
9 | CC[C@@H]1CNC2(CC2)CN1C(=O)[C@@H]1C[C@@H](F)CN1C(=O)C1=C(C(C)C)N2C(=N[C@@](C)(c3ccc(Cl)nc3)[C@H]2c2ccc(Cl)cc2)S1 [Example 30] | 3.1 | 400 to 2500 | 62
10 | CC(C)C1=C(C(=O)N2C[C@H](F)C[C@H]2C(=O)N2CC3(CC3)NC[C@@H]2CF)SC2=N[C@@](C)(c3ccc(Cl)nc3)[C@@H](c3ccc(Cl)c(F)c3)N21 [Example 31] | 3.1 | < 400 | 6

Other lines, results leading:

Row | IC50 (Mdm2/p53 binding) [nM] | GI50 [1] [nM] | MS (human) % (metabolic stability, residual percentage of compound) [2] [%] | Structure (SMILES)
11 | 2.3 | < 400 | 56 | CC(C)C1=C(C(=O)N2C[C@H](F)C[C@H]2C(=O)N2CC3(CC3)N(C)C[C@@H]2C)SC2=N[C@@](C)(c3ccc(Cl)nc3)[C@@H](c3ccc(Cl)c(F)c3)N21 [Example 16]
12 | 1.6 | < 400 | 6 | CC(C)C1=C(C(=O)N2C[C@H](F)C[C@H]2C(=O)N2CCNC3(CC3)C2)SC2=N[C@@](C)(c3ccc(Cl)cc3)[C@@H](c3ccc(Cl)cc3)N21 [Example 18]
13 | 1.6 | < 400 | 93 | CC(C)C1=C(C(=O)N2C[C@H](F)C[C@H]2C(=O)N2CC3(CC3)NC[C@@H]2C)SC2=N[C@@](C)(c3ccc(Cl)cc3)[C@@H](c3ccc(Cl)cc3)N21 [Example 19]
14 | 1.4 | < 400 | 36 | CC(C)C1=C(C(=O)N2C[C@H](F)C[C@H]2C(=O)N2CC3(CC3)NC[C@H]2C)SC2=N[C@@](C)(c3ccc(Cl)cc3)[C@@H](c3ccc(Cl)cc3)N21 [Example 20]
15 | 2.2 | < 400 | 96 | CC[C@H]1CNC2(CC2)CN1C(=O)[C@@H]1C[C@@H](F)CN1C(=O)C1=C(C(C)C)N2C(=N[C@@](C)(c3ccc(Cl)cc3)[C@H]2c2ccc(Cl)cc2)S1 [Example 21]
16 | 2.6 | < 400 | 60 | CC[C@@H]1CNC2(CC2)CN1C(=O)[C@@H]1C[C@@H](F)CN1C(=O)C1=C(C(C)C)N2C(=N[C@@](C)(c3ccc(Cl)cc3)[C@H]2c2ccc(Cl)cc2)S1 [Example 22]
17 | 1.6 | < 400 | 24 | CC(C)C1=C(C(=O)N2C[C@H](F)C[C@H]2C(=O)N2CCNC3(CC3)C2)SC2=N[C@@](C)(c3ccc(Cl)cc3)[C@@H](c3ccc(Cl)c(F)c3)N21 [Example 23]
18 | 1.9 | < 400 | 91 | CC(C)C1=C(C(=O)N2C[C@H](F)C[C@H]2C(=O)N2CC3(CC3)NC[C@@H]2C)SC2=N[C@@](C)(c3ccc(Cl)nc3)[C@@H](c3ccc(Cl)cc3)N21 [Example 27]
